pIC50: −log10 of the molar value. d = 2'-deoxy (DNA); m = 2'-O-methyl
How the values were obtained:
γH2A.X = experiment: Immunofluorescence staining and western blot for γH2A.X after MALAT1 knock-down; format: cell-based, Human; settings: H929, MM.1S and RPMI8226 cells, 48 h after transfection
Protocol: Protein was extracted from cells using RIPA buffer (Thermo Fisher Scientific) containing protease inhibitor cocktail (Roche) and phosphatase inhibitor cocktail (Thermo Fisher Scientific). Protein extracts were boiled in SDS/β-mercaptoethanol sample buffer, and 30 μg samples were loaded into each well on 4%-12% polyacrylamide gels (Thermo Fisher Scientific). The proteins were separated by electrophoresis, and the proteins in the gels were blotted onto PVDF membranes (Thermo Fisher Scientific) by electrophoretic transfer. […] The specific protein—antibody complex was detected with horseradish peroxidase-conjugated rabbit anti-mouse IgG. […]

MALAT1 = MALAT1 knock-down in MM cells by qRT-PCR; format: cell-based, Human; settings: H929, MM.1S and RPMI8226 cells, 48 h after transfection
Protocol: (§1) For anti-MALAT1 transfection and ABT-888 (Santa Cruz Biotechnology Inc) or bortezomib (MilliporeSigma) treatment, MM cells were seeded on 12-well plates at a concentration of 5×10^5 cells/mL. The cells were transfected using Lipofectamine 2000 (Thermo Fisher Scientific) with 1 nM control or anti-MALAT1 oligos for 24 hours and then treated with a gradient concentration of ABT-888 or bortezomib for another 24 hours. Cells were subjected to proliferation and apoptosis assays, qRT-PCR, and immunoblotting.
Quantitative RT-PCR (qRT-PCR) analysis was used to determine the relative expression level of MALAT1. Total RNA was extracted from cells or tissues using Trizol Reagent (Thermo Fisher Scientific) according to the manufacturer's instructions. After Turbo DNase (Thermo Fisher Scientific) treatment, 500 ng total RNA was subjected to reverse transcription using the RevertAid first-stand cDNA synthesis kit (Thermo Fisher Scientific). Quantitative PCR using SYBR Green PCR master mix (Thermo Fisher Scientific) was employed to determine MALAT1 level with PCR cycle conditions of 95° C. 10 min, 95° C. 15 s, and 60° C. 1 min, for 40 cycles. GAPDH was used as loading control.

RPMI8226/LR5 cells = experiment: Cell viability assay, melphalan-resistant cells; format: cell-based; settings: Homo sapiens, RPMI-8226, 72 h
Protocol: (§2) For the drug resistant cells, RPMI8226/DOX40, RPMI8226/LR5 and RPMI8226/V10R cells were transfected with 1 nM control or anti-MALAT1 oligos separately for 24 hours and treated with a gradient concentration of doxorubicin for RPMI8226/DOX40, or melphalan for RPMI8226/LR5, or bortezomib for RPMI8226/V10R for 72 hours. Cell were subjected to qRT-PCR, proliferation and apoptosis assays.
(§3) MM cell lines (MM.1S, H929 and RPMI8226) and drug resistant MM cell lines (RPMI8226/LR5, RPMI8226/DOX40 and RPMI8226/V10R) were treated with anti-MALAT1 oligos for 24 hours. 2×10^4 cells/well were seeded in a 96-well plate with 100 μL medium containing gradient concentration of bortezomib, melphalan or doxorubicin per well. After 72 hours culture, cells were subjected to cell viability assay using CellTilter 96® Aqueous One Solution Cell Proliferation Assay (Promega Corporation), according to the manufacturer's instructions. The half maximal inhibitory concentration (IC50) was calculated by Graphpad Prism V5.0.

RPMI8226/V10R cells = experiment: Cell viability assay, bortezomib-resistant cells; format: cell-based; settings: Homo sapiens, RPMI-8226, 72 h
Protocol: as §2, §3

BRCA1 and BRCA2 = experiment: Immunoblotting of BRCA1 and BRCA2 after bortezomib treatment; format: cell-based, Human; settings: H929, MM.1S and RPMI8226, high-dose bortezomib
Protocol: (§4) Cells were subjected to proliferation and apoptosis assays, qRT-PCR, and immunoblotting.
(§5) Protein was extracted from cells using RIPA buffer (Thermo Fisher Scientific) containing protease inhibitor cocktail (Roche) and phosphatase inhibitor cocktail (Thermo Fisher Scientific). Protein extracts were boiled in SDS/β-mercaptoethanol sample buffer, and 30 μg samples were loaded into each well on 4%-12% polyacrylamide gels (Thermo Fisher Scientific). The proteins were separated by electrophoresis, and the proteins in the gels were blotted onto PVDF membranes (Thermo Fisher Scientific) by electrophoretic transfer. […] The specific protein—antibody complex was detected with horseradish peroxidase-conjugated rabbit anti-mouse IgG. Detection by chemiluminescence reaction was carried using the SuperSignal West Femto Maximum Sensitivity Substrate kit (Thermo Fisher Scientific). β-actin was used as a loading control.

MM.1S cells = experiment: Cell viability assay, bortezomib with or without MALAT1 knockdown; format: cell-based; settings: Homo sapiens, MM1.S
Protocol: as §1, §3

RPMI8226 cells = experiment: as above; format: cell-based; settings: Homo sapiens, RPMI-8226, third cell line (RPMI8226, FIG. 6C)
Protocol: as §1, §3

H929 cells = experiment: as above; format: cell-based; settings: Homo sapiens
Protocol: as §1, §3

[1] = system: H929, MM.1S and RPMI8226 cells; experiment: MM cell apoptosis assay (annexin V/PI flow cytometry); format: cell-based, Human; settings: high-/low-dose bortezomib treatment
Protocol: as §1
After transfection of cells with anti-MALAT1 #1 or #2 and control, apoptosis was evaluated by assaying for annexin V. Cells were stained with APC Annexin V Apoptosis Detection Kit with PI (BioLegend), according to the manufacturer's instructions. Stained cells were analyzed using flow cytometry, and data were analyzed using Flowjo software (Ashland).

PARP1 = target: T1, PARP1 (Homo sapiens, UniProt P09874); experiment: Immunoblotting after anti-MALAT1 and ABT-888 treatment; format: cell-based
T1 construct: Protein was extracted from cells using RIPA buffer; endogenous in cells; host or cells: H929, MM.1S (human multiple myeloma cell lines, ATCC)
Protocol: as §4, §5

RPMI8226/DOX40 cells = experiment: Cell viability assay, doxorubicin-resistant cells; format: cell-based; settings: Homo sapiens, RPMI-8226, 72 h
Protocol: as §2, §3

[2] = transfected with 1 nM anti-MALAT1, 72 hours

T1 sequence (P09874 whole entry): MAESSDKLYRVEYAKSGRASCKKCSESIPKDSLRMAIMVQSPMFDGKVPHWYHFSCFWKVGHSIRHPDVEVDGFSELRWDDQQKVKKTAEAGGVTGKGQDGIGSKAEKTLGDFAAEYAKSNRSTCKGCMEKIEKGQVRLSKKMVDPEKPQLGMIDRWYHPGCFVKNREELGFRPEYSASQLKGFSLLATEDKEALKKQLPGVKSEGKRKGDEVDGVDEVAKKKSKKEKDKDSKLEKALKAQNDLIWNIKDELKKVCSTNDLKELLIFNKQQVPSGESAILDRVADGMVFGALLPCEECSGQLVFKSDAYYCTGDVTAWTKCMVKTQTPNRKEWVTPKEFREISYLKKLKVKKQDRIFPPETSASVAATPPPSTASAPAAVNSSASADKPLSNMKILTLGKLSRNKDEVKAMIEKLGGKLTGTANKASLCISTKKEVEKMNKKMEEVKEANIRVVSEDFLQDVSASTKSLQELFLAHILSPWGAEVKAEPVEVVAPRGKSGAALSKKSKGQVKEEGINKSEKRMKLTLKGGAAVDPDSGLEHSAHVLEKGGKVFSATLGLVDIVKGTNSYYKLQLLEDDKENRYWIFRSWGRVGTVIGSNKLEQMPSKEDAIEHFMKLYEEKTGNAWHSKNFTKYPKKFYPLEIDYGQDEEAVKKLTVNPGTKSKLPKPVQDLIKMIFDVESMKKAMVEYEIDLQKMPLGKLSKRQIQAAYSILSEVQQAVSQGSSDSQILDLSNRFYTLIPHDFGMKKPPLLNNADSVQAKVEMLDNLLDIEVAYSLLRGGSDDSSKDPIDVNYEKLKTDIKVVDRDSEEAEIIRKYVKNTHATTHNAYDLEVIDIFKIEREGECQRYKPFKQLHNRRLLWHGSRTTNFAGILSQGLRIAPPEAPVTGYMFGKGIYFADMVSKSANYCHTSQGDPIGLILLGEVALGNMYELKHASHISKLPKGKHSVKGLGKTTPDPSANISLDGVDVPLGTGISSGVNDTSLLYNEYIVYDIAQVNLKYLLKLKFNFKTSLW

“5′-mC*mG*mA*mA*mA*C*A*T*T*G*G*C*A*C*A*mC*mA*mG*mC*mA-3′ (antisense CGAAACATTGGCACACAGCA; sugars from the 5' end m5 d10 m5, all phosphorothioate, methylation of C not given here) [anti-MALAT1-1]” was tested, and the “frequency of DNA break (γH2A.X)” value (γH2A.X) was “increased substantially” and the “MALAT1 level (qRT-PCR)” value (MALAT1) was “efficiently knocked-down”.

N[C@@H](Cc1ccc(N(CCCl)CCCl)cc1)C(=O)O [melphalan] gave a pIC50 (RPMI8226/LR5 cells; control oligos, 72 hours) of 4.27 and a pIC50 (RPMI8226/LR5 cells; [2]) of 4.47.

In the case of CC(C)C[C@H](NC(=O)[C@H](Cc1ccccc1)NC(=O)c1cnccn1)B(O)O [bortezomib], the pIC50 (RPMI8226/V10R cells; control oligos, 72 hours) was 6.71, the pIC50 (RPMI8226/V10R cells; [2]) was 6.84 and the “expression of BRCA1 and BRCA2” value (BRCA1 and BRCA2) was “dramatically down-regulated”. It also gave a pIC50 (MM.1S cells; MM.1S cells transfected with 1 nM anti-MALAT1) of 8.18, a pIC50 (MM.1S cells; MM.1S cells, control (before MALAT1 knockdown)) of 8.05 and a pIC50 (RPMI8226 cells; control) of 8.00. It also gave a pIC50 (RPMI8226 cells; transfected with 1 nM anti-MALAT1) of 8.09, a pIC50 (H929 cells; NCI-H929, H929 cells transfected with 1 nM anti-MALAT1) of 8.44 and a pIC50 (H929 cells; NCI-H929, H929 cells, control (before MALAT1 knockdown)) of 8.31. For the same compound, the “γH2A.X signals and apoptosis ratio” value [1] was “increased”.

With C[C@]1(c2nc3c(C(N)=O)cccc3[nH]2)CCCN1 [ABT888] the PAR signal (PARP1; H929 and MM.1S, treated synchronously with anti-MALAT1 and ABT888) was “dose-dependent decreased” and the “level of γH2A.X, cleaved PARP1, and cleaved caspase-3” value (PARP1; combination treatment anti-MALAT1 and ABT888) was “significantly increased”.

Compound COc1cccc2c1C(=O)c1c(O)c3c(c(O)c1C2=O)C[C@@](O)(C(=O)CO)C[C@@H]3O[C@H]1C[C@H](N)[C@H](O)[C@H](C)O1 [doxorubicin] has a pIC50 (RPMI8226/DOX40 cells; control oligos, 72 hours) of 5.61 and a pIC50 (RPMI8226/DOX40 cells; [2]) of 5.83.

In the case of “5′-mG*mG*mC*mA*mU*A*T*G*C*A*G*A*T*A*A*mU*mG*mU*mU*mC-3′ (antisense GGCAUATGCAGATAAUGUUC; sugars from the 5' end m5 d10 m5, all phosphorothioate, methylation of C not given here) [anti-MALAT1-2]”, the “frequency of DNA break (γH2A.X)” value (γH2A.X) was “increased substantially” and the “MALAT1 level (qRT-PCR)” value (MALAT1) was “efficiently knocked-down”.

From patent publication US11359200B2, “Cancer treatment by MALAT1 inhibition” (THE CLEVELAND CLINIC FOUNDATION, priority 2017, dated 2022)
